The values below are quoted from earlier work in patent US20260232690A1, “Treatment of the Chronic Effects of Brain Injury Using Rho Kinase Inhibitors” (WOOLSEY PHARMACEUTICALS, INC., priority 2023, published 2026).

This data set has as its system salt-loaded hypertensive stroke-prone rats.

Turning to `Cl.O=S(=O)(c1cccc2cnccc12)N1CCCNCC1` [Fasudil, 5-(1,4-Diazepane-1-sulfonyl) isoquinoline], the nephrosclerosis entry is listed as “attenuate nephrosclerosis” and the survival entry is given as “improve survival”.
